Results: paper PMC11046985 (Neuro-Oncology Advances, 2024)
Like-named read-outs stand apart in the source and are kept apart here.

Key:
[1] = Afatinib plasma concentration, HPLC-MS/MS, phase I pulsatile afatinib; format: in vivo, human
Experimental: (§1) Pharmacokinetic (PK) data were obtained to guide optimal dose of afatinib. The time of maximum plasma concentration is reported between 2 and 5 hours after dosing.[18],[19]

[2] = Afatinib CSF concentration (lumbar puncture), HPLC-MS/MS; format: in vivo; details: human, oral
Experimental: as §1

[3] = test system: progressive or recurrent brain cancers; assay: Tumor response by MRI (RANO criteria), PFS, survival, cycles received; format: in vivo, human
Experimental: Tumor response was assessed by MRI after every 2 treatment cycles, or earlier if clinically indicated, according to the Response Assessment in Neuro-Oncology criteria.

[4] = read-out: Maximum concentration (Cmax) of afatinib in plasma; single dose of 40 mg, patients with solid tumors; cited from earlier work
[5] = cited from earlier work
[6] = daily afatinib, recurrent glioblastoma; read-out: Cmax in plasma; cited from earlier work
[7] = test system: U87MG human glioblastoma cells; details: cited from earlier work
[8] = mouse, 30 mg/kg afatinib, CSF from the dura through the atlanto-occipital membrane; cited from earlier work
[9] = 21 patients evaluable for efficacy
[10] = dose cohort 1 (80 mg every 4 days)
[11] = dose cohort 1 (80 mg every 4 days), 2 response-evaluable
[12] = dose cohort 2 (120 mg every 4 days)
[13] = dose cohort 2 (120 mg every 4 days), 3 response-evaluable
[14] = dose cohort 3 (180 mg every 4 days)
[15] = dose cohort 3 (180 mg every 4 days), 6 response-evaluable
[16] = dose cohort 4 (280 mg every 7 days), 10 response-evaluable

CN(C)C/C=C/C(=O)Nc1cc2c(Nc3ccc(F)c(Cl)c3)ncnc2cc1O[C@H]1CCOC1 [Afatinib]
Highest afatinib level in blood, one patient ([1]; 120 mg every 4 days cohort): approximately 0.8 μM | Cmax ([1]; human, plasma, 3 hours (± 2 hours) post dosing, oral, all cohorts): < 392 ng/mL | Pre-dose (trough) afatinib levels in blood ([1]; pulse dosing, all cohorts): under 50 nM | Afatinib concentration in blood ([1]; subject 002, Cohort 1: 80 mg q4d, post dosing, C1D8): 12.323 ng/mL | Afatinib concentration in blood ([1]; subject 002, Cohort 1: 80 mg q4d, pre dosing, C1D8): 8.751 ng/mL | Afatinib concentration in blood ([1]; subject 002, Cohort 1: 80 mg q4d, pre dosing, C2D1): 11.693 ng/mL | Afatinib concentration in blood ([1]; subject 002, Cohort 1: 80 mg q4d, pre dosing, EOT (EoC2)): <LLOQ (EoC2) | Afatinib concentration in blood ([1]; subject 003, Cohort 1: 80 mg q4d, post dosing, C1D22): 30.096 ng/mL | Afatinib concentration in blood ([1]; subject 003, Cohort 1: 80 mg q4d, pre dosing, C1D22): 17.318 ng/mL | Afatinib concentration in blood ([1]; subject 004, Cohort 1: 80 mg q4d, pre dosing, C2D1): <LLOQ | Afatinib concentration in blood ([1]; subject 005, Cohort 2: 120 mg q4d, post dosing, C1D15): 37.68 ng/mL | Afatinib concentration in blood ([1]; subject 005, Cohort 2: 120 mg q4d, pre dosing, C2D1): 7.18 ng/mL | Afatinib concentration in blood ([1]; subject 006, Cohort 2: 120 mg q4d, post dosing, C1D15): 66.156 ng/mL | Afatinib concentration in blood ([1]; subject 006, Cohort 2: 120 mg q4d, pre dosing, C1D15): <LLOQ | Afatinib concentration in blood ([1]; subject 006, Cohort 2: 120 mg q4d, pre dosing, C2D1): 10.104 ng/mL | Afatinib concentration in blood ([1]; subject 006, Cohort 2: 120 mg q4d, pre dosing, C3D1): <LLOQ | Afatinib concentration in blood ([1]; subject 006, Cohort 2: 120 mg q4d, pre dosing, C4D1): 11.223 ng/mL | Afatinib concentration in blood ([1]; subject 008, Cohort 2: 120 mg q4d, post dosing, C1D8): 392.01 ng/mL | Afatinib concentration in blood ([1]; subject 008, Cohort 2: 120 mg q4d, pre dosing, C1D8): 22.243 ng/mL | Afatinib concentration in blood ([1]; subject 010, Cohort 3: 180 mg q4d, post dosing, C1D22): 324.265 ng/mL | Afatinib concentration in blood ([1]; subject 010, Cohort 3: 180 mg q4d, pre dosing, C1D22): 43.226 ng/mL | Afatinib concentration in blood ([1]; subject 011, Cohort 3: 180 mg q4d, post dosing, C1D8): 11.705 ng/mL | Afatinib concentration in blood ([1]; subject 011, Cohort 3: 180 mg q4d, pre dosing, C1D8): 11.616 ng/mL | Afatinib concentration in blood ([1]; subject 011, Cohort 3: 180 mg q4d, pre dosing, C3D1): 19.265 ng/mL | Afatinib concentration in blood ([1]; subject 012, Cohort 3: 180 mg q4d, post dosing, C1D15): 96.354 ng/mL | Afatinib concentration in blood ([1]; subject 012, Cohort 3: 180 mg q4d, post dosing, C2D1): 85.834 ng/mL | Afatinib concentration in blood ([1]; subject 012, Cohort 3: 180 mg q4d, pre dosing, C1D15): <LLOQ | Afatinib concentration in blood ([1]; subject 012, Cohort 3: 180 mg q4d, pre dosing, C2D1): <LLOQ | Afatinib concentration in blood ([1]; subject 012, Cohort 3: 180 mg q4d, pre dosing, EOT (EoC4)): 6.402 (EoC4) ng/mL | Afatinib concentration in blood ([1]; subject 013, Cohort 3: 180 mg q4d, pre dosing, C1D15): 10.374 ng/mL | Afatinib concentration in blood ([1]; subject 013, Cohort 3: 180 mg q4d, pre dosing, C2D1): 41.964 ng/mL | Afatinib concentration in blood ([1]; subject 013, Cohort 3: 180 mg q4d, pre dosing, C4D1): 6.787 ng/mL | Afatinib concentration in blood ([1]; subject 014, Expansion Cohort 3: 180 mg q4d, post dosing, C1D8): 60.605 ng/mL | Afatinib concentration in blood ([1]; subject 014, Expansion Cohort 3: 180 mg q4d, pre dosing, C1D8): 11.442 ng/mL | Afatinib concentration in blood ([1]; subject 015, Cohort 4: 280 mg q7d, post dosing, C1D15): 40.694 ng/mL | Afatinib concentration in blood ([1]; subject 015, Cohort 4: 280 mg q7d, pre dosing, EOT (EoC1)): <LLOQ (EoC1) | Afatinib concentration in blood ([1]; subject 016, Cohort 4: 280 mg q7d, post dosing, C1D15): 205.634 ng/mL | Afatinib concentration in blood ([1]; subject 017, Expansion Cohort 3: 180 mg q4d, post dosing, C1D15): 89.884 ng/mL | Afatinib concentration in blood ([1]; subject 017, Expansion Cohort 3: 180 mg q4d, pre dosing, C1D15): 10.425 ng/mL | Afatinib concentration in blood ([1]; subject 017, Expansion Cohort 3: 180 mg q4d, pre dosing, C2D1): 5.708 ng/mL | Afatinib concentration in blood ([1]; subject 017, Expansion Cohort 3: 180 mg q4d, pre dosing, C3D1): <LLOQ | Afatinib concentration in blood ([1]; subject 017, Expansion Cohort 3: 180 mg q4d, pre dosing, C4D1): 6.264 ng/mL | Afatinib concentration in blood ([1]; subject 018, Cohort 4: 280 mg q7d, post dosing, C1D15): 322.557 ng/mL | Afatinib concentration in blood ([1]; subject 018, Cohort 4: 280 mg q7d, post dosing, C2D1): 340.709 ng/mL | Afatinib concentration in blood ([1]; subject 018, Cohort 4: 280 mg q7d, pre dosing, C1D15): 9.603 ng/mL | Afatinib concentration in blood ([1]; subject 018, Cohort 4: 280 mg q7d, pre dosing, C2D1): 22.084 ng/mL | Afatinib concentration in blood ([1]; subject 018, Cohort 4: 280 mg q7d, pre dosing, C3D1): 14.169 ng/mL | Afatinib concentration in blood ([1]; subject 018, Cohort 4: 280 mg q7d, pre dosing, C4D1): 11.731 ng/mL | Afatinib concentration in blood ([1]; subject 018, Cohort 4: 280 mg q7d, pre dosing, EOT (EoC4)): 10.379 (EoC4) ng/mL | Afatinib concentration in blood ([1]; subject 019, Expansion Cohort 4: 280 mg q7d, post dosing, C1D8): 153.973 ng/mL | Afatinib concentration in blood ([1]; subject 019, Expansion Cohort 4: 280 mg q7d, pre dosing, C1D8): 9.857 ng/mL | Afatinib concentration in blood ([1]; subject 019, Expansion Cohort 4: 280 mg q7d, pre dosing, C2D1): 11.805 ng/mL | Afatinib concentration in blood ([1]; subject 019, Expansion Cohort 4: 280 mg q7d, pre dosing, EOT (EoC2)): <LLOQ (EoC2) | Afatinib concentration in blood ([1]; subject 020, Expansion Cohort 4: 280 mg q7d, post dosing, C1D15): 110.625 ng/mL | Afatinib concentration in blood ([1]; subject 020, Expansion Cohort 4: 280 mg q7d, pre dosing, C1D15): 8.586 ng/mL | Afatinib concentration in blood ([1]; subject 020, Expansion Cohort 4: 280 mg q7d, pre dosing, C2D1): 11.278 ng/mL | Afatinib concentration in blood ([1]; subject 021, Expansion Cohort 4: 280 mg q7d, post dosing, C1D15): 40.352 ng/mL | Afatinib concentration in blood ([1]; subject 021, Expansion Cohort 4: 280 mg q7d, pre dosing, C1D15): 5.966 ng/mL | Afatinib concentration in blood ([1]; subject 021, Expansion Cohort 4: 280 mg q7d, pre dosing, C2D1): <LLOQ | Afatinib concentration in blood ([1]; subject 021, Expansion Cohort 4: 280 mg q7d, pre dosing, EOT (C2D15)): <LLOQ (C2D15) | concentration at 3 h ([2]; 8 patients, approximately 3 hours after dosing in the first cycle, below lower limit of quantification): < 1.01 ng/mL | concentration at 3 h ([2]; not detected, lower limit of quantification): < 2.09 nM | Disease stabilization, % of patients [3, 9]: 14.3% | Disease stabilization, No. of patients [3, 9]: 3 | Partial response (RANO), % of patients [3, 9]: 9.5% | Partial response (RANO), No. of patients [3, 9]: 2 | Progressive disease, No. of patients [3, 9]: Sixteen | Median overall survival ([3]; all patients): 10.3 months | PFS, Median [3, 10]: 44 days | PFS, Range [3, 10]: 32 to 56 days | Best Response CR, No. of patients [3, 11]: 0 | Best Response PD, No. of patients [3, 11]: 2 | Best Response PR, No. of patients [3, 11]: 0 | Best Response SD, No. of patients [3, 11]: 0 | PFS, Median [3, 12]: 42 days | PFS, Range [3, 12]: 29 to 106 days | Best Response CR, No. of patients [3, 13]: 0 | Best Response PD, No. of patients [3, 13]: 2 | Best Response PR, No. of patients [3, 13]: 1 | Best Response SD, No. of patients [3, 13]: 0 | PFS, Median [3, 14]: 78 days | PFS, Range [3, 14]: 20 to 261 days | Best Response CR, No. of patients [3, 15]: 0 | Best Response PD, No. of patients [3, 15]: 4 | Best Response PR, No. of patients [3, 15]: 0 | Best Response SD, No. of patients [3, 15]: 2 | PFS, Median ([3]; dose cohort 4 (280 mg every 7 days)): 56 days | Best Response CR, No. of patients [3, 16]: 0 | Best Response PD, No. of patients [3, 16]: 8 | Best Response PR, No. of patients [3, 16]: 1 | Best Response SD, No. of patients [3, 16]: 1 | Median overall survival ([3]; glioblastoma): 5.2 months | Median progression-free survival ([3]; overall): 2.0 months | Progression-free survival rate at 6 months (PFS6) ([3]; patients with glioblastoma (n = 16)): 0% | Cmax [4]: ~10 nM | Median concentration of afatinib in CSF ([5]; afatinib 40 mg daily, 11 patients, leptomeningeal metastases from NSCLC, steady-state day 8): 2.9 nM | Afatinib concentration in the CSF ([5]; daily afatinib, case of leptomeningeal carcinomatosis): 0.05 nM | Cmax [6]: ~24 nM | Inhibitory concentration of 25% (IC25) [7]: approximately 2 μM | Time of peak concentration in CSF after dosing [8]: one
